Test results as given in PubChem BioAssay (NCI).
“And” between values parts separate entries of the source, which are not always exact repeats. Equal values may be shown once.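 Following 48 hours of exposure in 96-well plates, responses at five concentrations were used to interpolate endpoints linearly. Here, GI50 denotes the concentration required for 50% inhibition of growth. TGI is the concentration that stops growth completely.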

How the values were obtained:
Assay in all cases: growth of human tumour cells (NCI), 48 h; in the data active = GI50 below about 0.43 µM; inactive = the rest
[1] = system: 786-0 renal
[2] = system: A498 renal
[3] = system: A549 NSCLC
[4] = system: ACHN renal
[5] = system: CAKI-1 renal
[6] = system: COLO 205 colon
[7] = system: HCC-2998 colon
[8] = system: HCT-116 colon
[9] = system: HCT-15 colon
[10] = system: HL-60(TB) leukemia
[11] = system: HOP-62 NSCLC
[12] = system: HOP-92 NSCLC
[13] = system: HT29 colon
[14] = system: IGROV1 ovarian
[15] = system: K-562 leukemia
[16] = system: KM12 colon
[17] = system: KM20L2 colon
[18] = system: LOX IMVI melanoma
[19] = system: M14 melanoma
[20] = system: MALME-3M melanoma
[21] = system: MOLT-4 leukemia
[22] = system: NCI-H226 lung
[23] = system: NCI-H23 lung
[24] = system: NCI-H460 lung
[25] = system: NCI-H522 lung
[26] = system: OVCAR-3 ovarian
[27] = system: OVCAR-4 ovarian
[28] = system: OVCAR-8 ovarian
[29] = system: RPMI-8226 leukemia
[30] = system: RXF 393 renal
[31] = system: SF-268 CNS
[32] = system: SF-295 CNS
[33] = system: SF-539 CNS
[34] = system: SK-MEL-2 melanoma
[35] = system: SK-MEL-28 melanoma
[36] = system: SK-MEL-5 melanoma
[37] = system: SK-OV-3 ovarian
[38] = system: SN12C renal
[39] = system: SNB-19 CNS
[40] = system: SNB-75 CNS
[41] = system: SW-620 colon
[42] = system: TK-10 renal
[43] = system: U251 CNS
[44] = system: UACC-257 melanoma
[45] = system: UACC-62 melanoma
[46] = system: UO-31 renal
[47] = system: BT-549 breast
[48] = system: CCRF-CEM leukemia
[49] = system: DU-145 prostate
[50] = system: EKVX NSCLC
[51] = system: HS 578T breast
[52] = system: MCF7 breast
[53] = system: MDA-MB-231 breast
[54] = system: MDA-MB-435
[55] = system: MDA-N
[56] = system: NCI/ADR-RES ovarian
[57] = system: OVCAR-5 ovarian
[58] = system: PC-3 prostate
[59] = system: SR leukemia
[60] = system: T-47D breast
[61] = system: LXFL 529 NSCLC
[62] = system: DMS 273 small cell lung
[63] = system: HOP-18 NSCLC
[64] = system: M19-MEL melanoma

C1C[OH+]CC[OH+]CC[OH+]CC[OH+]CC[OH+]CC[OH+]1.[Cl-].[Ta+5]
inactive: GI50 [1] > 100 µM | GI50 [2] > 100 µM | GI50 [3] > 100 µM | GI50 [4] > 100 µM | GI50 [5] > 100 µM | GI50 [6] > 100 µM | GI50 [7] > 100 µM | GI50 [8] > 100 µM | GI50 [9] > 100 µM | GI50 [10] > 100 µM | GI50 [11] > 100 µM | GI50 [12] > 100 µM | GI50 [13] > 100 µM | GI50 [14] > 100 µM | GI50 [15] > 100 µM | GI50 [16] > 100 µM | GI50 [17] > 100 µM | GI50 [18] > 100 µM | GI50 [19] > 100 µM | GI50 [20] > 100 µM | GI50 [21] > 100 µM | GI50 [22] 13.3 µM | GI50 [23] > 100 µM | GI50 [24] > 100 µM | GI50 [25] > 100 µM | GI50 [26] > 100 µM | GI50 [27] > 100 µM | GI50 [28] > 100 µM | GI50 [29] > 100 µM | GI50 [30] > 100 µM | GI50 [31] > 100 µM | GI50 [32] > 100 µM | GI50 [33] > 100 µM | GI50 [34] > 100 µM | GI50 [35] > 100 µM | GI50 [36] > 100 µM | GI50 [37] > 100 µM | GI50 [38] > 100 µM | GI50 [39] 24.3 µM | GI50 [40] 23.8 µM | GI50 [41] > 100 µM | GI50 [42] > 100 µM | GI50 [43] > 100 µM | GI50 [44] > 100 µM | GI50 [45] > 100 µM | GI50 [46] 5.02 µM
30.3 µM: TGI [46]
> 100 µM: TGI [1] | TGI [2] | TGI [3] | TGI [4] | TGI [5] | TGI [6] | TGI [7] | TGI [8] | TGI [9] | TGI [10] | TGI [11] | TGI [12] | TGI [13] | TGI [14] | TGI [15] | TGI [16] | TGI [17] | TGI [18] | TGI [19] | TGI [20] | TGI [21] | TGI [23] | TGI [24] | TGI [25] | TGI [26] | TGI [27] | TGI [28] | TGI [29] | TGI [30] | TGI [31] | TGI [32] | TGI [33] | TGI [34] | TGI [35] | TGI [36] | TGI [37] | TGI [38] | TGI [39] | TGI [40] | TGI [41] | TGI [42] | TGI [43] | TGI [44] | TGI [45]
30.5 µM: TGI [22]

O=C(O)C(CO)NC(=O)C1C(C(=O)O)C(c2ccccc2[N+](=O)[O-])C=C(c2ccco2)N1c1ccncc1 (stereo unspecified)
22.1 µM: TGI [58]
23.9 µM: TGI [60]
25.2 µM: TGI [11]
9.48 µM: TGI [42]
3.12 µM: TGI [30]
25.7 µM: TGI [12]
19.9 µM: TGI [23]
6.21 µM: TGI [43]
11.1 µM: TGI [3]
4.39 µM: TGI [9]
5.74 µM: TGI [15]
6.01 µM: TGI [1]
57.5 µM: TGI [51]
32.7 µM: TGI [50]
3.66 µM: TGI [13]
39.1 µM: TGI [22]
24.8 µM: TGI [2]
3.35 µM: TGI [16]
25.3 µM: TGI [27]
4.15 µM: TGI [14]
10.2 µM: TGI [36]
19 µM: TGI [25] | TGI [32]
29.1 µM: TGI [20]
17.1 µM: TGI [26]
23.6 µM: TGI [49]
4.22 µM: TGI [29]
8.42 µM: TGI [55]
3.42 µM: TGI [18]
24.5 µM: TGI [39]
3.67 µM: TGI [4]
24.3 µM: TGI [5]
3.08 µM: TGI [8]
29.4 µM: TGI [37]
10.4 µM: TGI [46]
> 22.5 µM: TGI [21]
30.5 µM: TGI [31]
13.9 µM: TGI [19]
31 µM: TGI [28] | TGI [34]
16.8 µM: TGI [54]
25.4 µM: TGI [57] | TGI [38]
3.64 µM: TGI [33]
9.9 µM: TGI [44]
9.13 µM: TGI [7]
22.5 µM: TGI [35]
3.79 µM: TGI [41]
5.32 µM: TGI [48]
5.63 µM: TGI [52]
7.56 µM: TGI [53]
> 100 µM: TGI [10] | TGI [59]
12 µM: TGI [6]
20.3 µM: TGI [45]
22.3 µM: TGI [40]
22.8 µM: TGI [47]
59 µM: TGI [56]
18.5 µM: TGI [24]

N#Cc1c(-c2ccccc2)cc(-c2ccccc2)n(C2OC(CO)C(O)C(O)C2O)c1=O (stereo unspecified)
> 100 µM: TGI [48] | TGI [10] | TGI [12] | TGI [15] | TGI [18] | TGI [61] | TGI [21] | TGI [29] | TGI [59] | TGI [45]
> 100 µM and 80.9 µM: TGI [40]
inactive: GI50 [12] 88.4 µM and 31.9 µM | GI50 [40] 34.4 µM and 14.5 µM

O=C(Nc1cccc(C(F)(F)F)c1)c1cc(-c2ccccc2)nc(=S)[nH]1
> 100 µM: TGI [5] | TGI [6] | TGI [62] | TGI [7] | TGI [8] | TGI [9] | TGI [10] | TGI [63] | TGI [11] | TGI [12] | TGI [13] | TGI [16] | TGI [17] | TGI [18] | TGI [61] | TGI [19] | TGI [64] | TGI [20] | TGI [22] | TGI [24] | TGI [26] | TGI [27] | TGI [57] | TGI [28] | TGI [32] | TGI [34] | TGI [38] | TGI [39] | TGI [59] | TGI [41] | TGI [44] | TGI [46]
